Results from patent US10487078B2, “Compositions and methods of targeting mutant K-RAS” (NantBio, Inc., priority 2015, dated 2019).
pIC50, pKd: −log10 of the molar value. Where two headings read alike, the source gives them in different places.

What was measured:
K-ras G12D = K-ras G12D (Homo sapiens, UniProt P01116, G12D); assay: G-LISA Ras activation assay, 293H cells transfected with G12D mutant; assay type: cell-based; conditions: 1 hour treatment; for IC50: Table 1, G-LISA, 293H transfected, read-out: IC50 (μM) G12D; for pIC50: Table 5, IC50, 293H transfected, read-out: G-LISA (G12D)
Method: (§1) 293H cells were seeded in 6-wells at 0.6×10^6 cells per well and transfected next day with 5 μg of Ras wild-type, or G12C, G12D or G12V mutant DNA plasmid vector using transfection reagent Lipofectamine 3000. Next day cells were treated with 3.125-50 μM of Ras compounds for 1 hour. Wild-type transfected cells were subsequently treated with 100 ng/ml EGF for 2 minutes. Cells were washed once in ice-cold PBS, lysed in complete lysis buffer on ice, and processed by G-LISA according to Cytoskeleton protocol.
(§2) In-cell selectivity of the compounds presented herein against a specific K-ras mutant form can also be tested as shown in the following exemplary experiment. 293H cells were seeded in 6-wells and transfected next day with 5 μg of Ras wild-type, or G12C, G12D or G12V mutant DNA plasmid vector. Next day cells were treated with 3.125-50 μM of Ras compounds for 1 hour. Wild-type transfected cells were subsequently treated with 100 ng/ml EGF for 2 minutes. Cells were washed once in ice-cold PBS, lysed in complete lysis buffer on ice, and processed by G-LISA according to Cytoskeleton protocol. FIG. 1 depicts exemplary results.
as §1, with “In still further experiments, the inventors tested selected compounds in a G-LISA assay to compare IC50 values for wild-type and various mutant K-Ras (G12D, G12V) using the following general protocol: 293H” for “293H”

K-Ras wild-type = K-Ras wild-type (Homo sapiens, UniProt P01116); assay: G-LISA Ras activation assay, 293H cells transfected with Ras wild-type, EGF-stimulated; assay type: cell-based; conditions: 1 hour treatment, 100 ng/ml EGF
Method: as §1, §2
as §1, with “In still further experiments, the inventors tested selected compounds in a G-LISA assay to compare IC50 values for wild-type and various mutant K-Ras (G12D, G12V) using the following general protocol: 293H” for “293H”

K-ras G12V = K-ras G12V (Homo sapiens, UniProt P01116, G12V); assay: G-LISA Ras activation assay, 293H cells transfected with G12V mutant; assay type: cell-based; conditions: 1 hour treatment
Method: as §1, §2
as §1, with “In still further experiments, the inventors tested selected compounds in a G-LISA assay to compare IC50 values for wild-type and various mutant K-Ras (G12D, G12V) using the following general protocol: 293H” for “293H”

K-ras G12V (GTP) = K-ras G12V (GTP) (Homo sapiens, UniProt P01116, G12V); assay: SPR assay (surface plasmon resonance); assay type: binding; conditions: 25° C., 8% DMSO
Method: Selected compounds were also tested for selective binding to wild type and mutant forms of K-ras in the active and non-active state using surface plasmon resonance, and exemplary results are shown in Table 4.
The running buffer in all surface plasmon resonance experiments was 10 mM HEPES pH 7.4, 150 mM NaCl, 0.1% (v/v) Tween-20, 1 mM MgCl2, 8% DMSO. Experiments were carried out on the SensiQ Pioneer optical biosensor. The flow rate was set at 50 μL/min and the temperature was 25° C. kRAS protein was immobilized to the Nickel-NTA charged surface of the SensiQ HisCap chip (sensiqtech.com) giving a yield of 4000 RU. Small molecules were prepared in 100% DMSO and further diluted to 8% DMSO in running buffer. The small molecules were injected using the Taylor diffusion gradient injection mode (OneStep®, see e.g., Evaluation of Taylor dispersion injections: Determining kinetic/affinity interaction constants and diffusion coefficients in label-free biosensing, John G. Quinn, Analytical Biochemistry (2011)). Buffer blanks were injected for double referencing purposes. Data processing and model fitting were performed using Qdat.

Row | IC50 (K-ras G12D) | pIC50 (K-ras G12D) | IC50 (K-Ras wild-type; Table 1, G-LISA, 293H transfected, read-out: IC50 (μM) Wild-type) | pIC50 (K-Ras wild-type; Table 5, IC50, 293H transfected, read-out: G-LISA (wild type)) | IC50 (K-ras G12V; Table 1, G-LISA, 293H transfected, read-out: IC50 (μM) G12V) | pIC50 (K-ras G12V; Table 5, IC50, 293H transfected, read-out: G-LISA (G12V)) | SPR Assay G12V (GTP) Kd (K-ras G12V (GTP)) | pKd (K-ras G12V (GTP)) | SPR Assay G12V (GTP) Rmax (K-ras G12V (GTP)) | Structure (SMILES)
1 | > 25 µM | < 4.60 |  |  |  |  |  |  |  | Cc1nc(C)c(C(=O)Nc2nc(-c3ccc4c(c3)CCC(=O)N4)cs2)s1 [Compound 4662]
2 | > 25 µM | < 4.60 |  |  |  |  |  |  |  | N#Cc1ncc(C(=O)Nc2nc(-c3ccc4c(c3)CCC(=O)N4)cs2)s1 [Compound 4685]
3 | 19 µM | 4.72 |  |  |  |  |  | 5.18 | Rmax = 72.6 ± 0.1 | Cc1nc(C)c(C(=O)Nc2nc(-c3ccc4c(c3)CCC(=O)N4C)cs2)s1 [Compound 4687]
4 | > 25 µM | < 4.60 |  |  |  |  |  | 4.37 | Rmax = 203 ± 3 | O=C1CCc2cc(-c3csc(NC(=O)c4scnc4C4CC4)n3)ccc2N1 [Compound 4735]
5 | > 25 µM | < 4.60 |  |  |  |  |  | 5.00 | Rmax = 85.3 ± 0.1 | CCc1ncsc1C(=O)Nc1nc(-c2ccc3c(c2)CCC(=O)N3)cs1 [Compound 4747]
6 | 21 µM | 4.68 |  |  |  |  |  |  |  | Cc1nc(C)c(C(=O)Nc2nc(-c3ccc4c(c3)CNC(=O)N4)cs2)s1 [Compound 4748]

More lines, now with the values behind:

Row | Structure (SMILES) | IC50 (K-ras G12D) | pIC50 (K-ras G12D) | IC50 (K-Ras wild-type; Table 1, G-LISA, 293H transfected, read-out: IC50 (μM) Wild-type) | pIC50 (K-Ras wild-type; Table 5, IC50, 293H transfected, read-out: G-LISA (wild type)) | IC50 (K-ras G12V; Table 1, G-LISA, 293H transfected, read-out: IC50 (μM) G12V) | pIC50 (K-ras G12V; Table 5, IC50, 293H transfected, read-out: G-LISA (G12V)) | SPR Assay G12V (GTP) Kd (K-ras G12V (GTP)) | pKd (K-ras G12V (GTP)) | SPR Assay G12V (GTP) Rmax (K-ras G12V (GTP))
7 | CC(=O)Nc1ccc(-c2csc(NC(=O)c3sc(C)nc3C)n2)cc1 [Compound 4663] | 15 µM | < 4.60 | 7 µM | 5.15 | 32 µM | 4.49 | No binding/fit |  | 
8 | Cc1nc(C)c(C(=O)Nc2nc(-c3ccc(NC(=O)c4ccccc4)cc3)cs2)s1 [Compound 4665] | > 25 µM | < 4.60 |  |  |  |  |  |  | 
9 | O=C1CCc2cc(-c3csc(NC(=O)c4cnc(C5CC5)s4)n3)ccc2N1 [Compound 4683] | 12 µM | 4.92 |  |  |  |  |  |  | 
10 | O=C1CCc2cc(-c3csc(NC(=O)c4cnc(-c5ccccc5)s4)n3)ccc2N1 [Compound 4684] | > 25 µM | < 4.60 |  |  |  |  |  |  | 
11 | CC(=O)N1CCCc2cc(-c3csc(NC(=O)c4sc(C)nc4C)n3)ccc21 [Compound 4686] | 11 µM | 4.96 |  |  |  |  |  | 4.94 | Rmax = 94.2 ± 0.2
12 | Cc1nc(C)c(C(=O)Nc2nc(-c3cc4c5c(c3)CCN5C(=O)CC4)cs2)s1 [Compound 4749] | > 25 µM | 4.44 |  |  |  |  |  | 5.22 | Rmax = 75.9 ± 0.1
